Measurements as given in ChEMBL document CHEMBL1201862, “PubChem BioAssay data set” (2004).
Calls of active or inactive are those of the source.

Key:
[1] = target: T1, Alkaline phosphatase, tissue-nonspecific isozyme (Homo sapiens, UniProt P05186)
T1 sequence (P05186 whole entry): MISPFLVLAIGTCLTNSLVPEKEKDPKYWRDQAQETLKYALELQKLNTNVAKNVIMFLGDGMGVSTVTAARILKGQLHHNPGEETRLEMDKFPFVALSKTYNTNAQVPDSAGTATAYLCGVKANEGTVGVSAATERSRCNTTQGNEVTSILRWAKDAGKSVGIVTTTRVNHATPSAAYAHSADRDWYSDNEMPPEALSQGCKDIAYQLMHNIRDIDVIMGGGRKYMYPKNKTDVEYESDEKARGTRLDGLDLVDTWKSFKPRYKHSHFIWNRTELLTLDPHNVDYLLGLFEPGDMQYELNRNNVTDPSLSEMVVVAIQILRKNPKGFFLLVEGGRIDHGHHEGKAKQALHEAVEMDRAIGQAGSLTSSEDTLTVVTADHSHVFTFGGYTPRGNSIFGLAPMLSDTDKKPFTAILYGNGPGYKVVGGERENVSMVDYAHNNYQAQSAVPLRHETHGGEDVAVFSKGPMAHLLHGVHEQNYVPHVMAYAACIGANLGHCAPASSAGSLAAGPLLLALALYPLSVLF

[2] = tested on: BJ; experiment: BJ-TERT fibroblast viability loss – cell-based, RAS-independent, luminescence, dose response (AID 1933); assay type: functional; conditions: Homo sapiens
[3] = tested on: BJ; experiment: cells; assay type: functional, cell-based; conditions: Homo sapiens
[4] = microbe, parasite or virus in culture; assay type: functional; conditions: Mycobacterium tuberculosis
[5] = target: T2, Sphingosine 1-phosphate receptor 4 (Homo sapiens, UniProt O95977); experiment: Fluorescence dose response cell-based high throughput screening assay for antagonists of the Sphingosine 1-Phosphate Receptor 4 (S1P4). [Related pubchem assays: 1524 (Confirmation in triplicates.), 1510 (Primary screen.)]; assay type: functional
T2 sequence (O95977 whole entry): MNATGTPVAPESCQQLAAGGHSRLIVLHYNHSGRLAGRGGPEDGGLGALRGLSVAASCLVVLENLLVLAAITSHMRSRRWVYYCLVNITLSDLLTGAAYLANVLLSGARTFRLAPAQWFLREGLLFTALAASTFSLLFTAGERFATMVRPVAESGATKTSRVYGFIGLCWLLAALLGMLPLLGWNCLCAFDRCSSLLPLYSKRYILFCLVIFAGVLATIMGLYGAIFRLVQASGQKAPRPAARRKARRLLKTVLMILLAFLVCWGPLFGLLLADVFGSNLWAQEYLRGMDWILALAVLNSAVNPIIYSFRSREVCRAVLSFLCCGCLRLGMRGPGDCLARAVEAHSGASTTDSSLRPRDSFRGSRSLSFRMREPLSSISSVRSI

[6] = tested on: BJ; experiment: BJ-TERT-LT-ST fibroblast viability loss – cell-based, RAS-independent, luminescence, dose response (AID 1935); assay type: functional; conditions: Homo sapiens;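 also: BJ fibroblasts immortalized with TERT plus LT and ST oncogenes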
[7] = DRD fibroblast viability loss – cell-based, non-viral oncogenic, luminescence, dose response (AID 1934); assay type: functional; conditions: Homo sapiens
[8] = target: Sphingosine 1-phosphate receptor 1 (Homo sapiens, UniProt P21453); assay type: functional;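 also: Tango beta-arrestin reporter U2OS cells stimulated with S1P near its EC80; inhibitor potency meaning antagonism of receptor activation by the natural agonist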
[9] = target: T3, Replicative DNA helicase DnaB (Mycobacterium tuberculosis, UniProt P9WMR3); experiment: DnaB intein splicing inhibitors, dose response, biochemical, cell-free fluorescence (AID 449749); assay type: functional
T3 sequence (P9WMR3 whole entry): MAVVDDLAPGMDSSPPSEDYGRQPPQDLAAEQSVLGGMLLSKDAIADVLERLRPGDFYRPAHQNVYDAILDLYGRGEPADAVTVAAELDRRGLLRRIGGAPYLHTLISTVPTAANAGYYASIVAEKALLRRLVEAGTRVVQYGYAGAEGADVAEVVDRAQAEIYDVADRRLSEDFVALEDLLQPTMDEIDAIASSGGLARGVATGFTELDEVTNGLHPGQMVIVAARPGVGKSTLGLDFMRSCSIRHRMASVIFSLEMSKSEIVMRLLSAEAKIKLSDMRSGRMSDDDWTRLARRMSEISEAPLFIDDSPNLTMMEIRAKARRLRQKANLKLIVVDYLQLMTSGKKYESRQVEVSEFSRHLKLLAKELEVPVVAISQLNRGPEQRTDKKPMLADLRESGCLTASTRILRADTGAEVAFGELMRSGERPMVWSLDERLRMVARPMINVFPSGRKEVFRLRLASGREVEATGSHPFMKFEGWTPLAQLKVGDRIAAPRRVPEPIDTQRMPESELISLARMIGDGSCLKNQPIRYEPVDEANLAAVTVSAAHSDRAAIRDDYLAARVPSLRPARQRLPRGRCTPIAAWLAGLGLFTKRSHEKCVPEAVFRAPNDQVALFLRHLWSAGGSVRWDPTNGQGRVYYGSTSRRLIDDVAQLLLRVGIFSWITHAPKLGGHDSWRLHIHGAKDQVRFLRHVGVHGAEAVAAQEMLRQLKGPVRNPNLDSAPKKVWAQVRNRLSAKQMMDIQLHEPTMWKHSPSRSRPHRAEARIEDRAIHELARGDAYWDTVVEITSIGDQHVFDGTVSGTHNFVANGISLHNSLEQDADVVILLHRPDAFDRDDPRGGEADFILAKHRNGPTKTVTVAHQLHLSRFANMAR

[10] = target: T4, Protein RecA (Mycobacterium tuberculosis, UniProt P9WHJ3); experiment: Fluorescence Cell-Free Homogeneous Dose Retest to Identify Inhibitors of RecA-Intein Splicing Activity. [Related pubchem assays (depositor defined):AID2097, AID2223, AID489010, AID492950]; assay type: functional
T4 sequence (P9WHJ3 whole entry): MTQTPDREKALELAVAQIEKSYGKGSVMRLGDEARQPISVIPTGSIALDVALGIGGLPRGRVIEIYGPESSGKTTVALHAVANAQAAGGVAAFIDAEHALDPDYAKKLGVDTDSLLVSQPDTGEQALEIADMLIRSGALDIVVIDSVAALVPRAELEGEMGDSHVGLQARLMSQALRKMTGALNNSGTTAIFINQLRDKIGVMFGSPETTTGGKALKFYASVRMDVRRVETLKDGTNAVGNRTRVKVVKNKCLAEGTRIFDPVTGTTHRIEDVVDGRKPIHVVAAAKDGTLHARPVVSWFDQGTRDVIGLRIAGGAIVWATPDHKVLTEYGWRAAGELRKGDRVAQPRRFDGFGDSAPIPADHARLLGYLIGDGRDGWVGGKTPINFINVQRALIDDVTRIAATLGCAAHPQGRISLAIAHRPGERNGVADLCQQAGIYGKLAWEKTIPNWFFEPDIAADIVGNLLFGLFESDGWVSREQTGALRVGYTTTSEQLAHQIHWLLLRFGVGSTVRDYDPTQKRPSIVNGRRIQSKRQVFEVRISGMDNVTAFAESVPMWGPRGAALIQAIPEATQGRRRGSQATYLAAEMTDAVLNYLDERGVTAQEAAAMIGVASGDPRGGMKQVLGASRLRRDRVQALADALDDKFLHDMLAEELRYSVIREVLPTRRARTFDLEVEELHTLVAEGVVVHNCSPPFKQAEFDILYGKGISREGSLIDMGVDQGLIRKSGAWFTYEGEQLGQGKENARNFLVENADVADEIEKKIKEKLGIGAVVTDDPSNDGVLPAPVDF

[11] = target: Melanocortin receptor 4 (Homo sapiens, UniProt P32245); experiment: inhibitors of MC4R cAMP signaling – cell-based, TR-FRET, biased antagonists, dose response (AID 602298); assay type: functional;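 also: antagonist potency against agonist-stimulated cAMP production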
Chain of Melanocortin receptor 4 (P32245 whole entry): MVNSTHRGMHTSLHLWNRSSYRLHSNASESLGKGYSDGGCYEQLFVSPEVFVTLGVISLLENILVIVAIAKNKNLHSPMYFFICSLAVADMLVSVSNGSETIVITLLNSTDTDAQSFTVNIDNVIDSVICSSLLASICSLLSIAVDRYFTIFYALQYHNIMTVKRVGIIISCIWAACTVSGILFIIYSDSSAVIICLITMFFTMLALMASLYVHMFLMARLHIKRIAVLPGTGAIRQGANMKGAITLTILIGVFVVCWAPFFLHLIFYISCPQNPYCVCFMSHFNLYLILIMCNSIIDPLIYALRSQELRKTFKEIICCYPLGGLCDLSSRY

[12] = cAMP pathway inhibition in counterscreen cell line – TR-FRET cAMP detection, counter-screen for MC4R biased antagonist project, dose response (AID 602305); assay type: functional, cell-based;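 also: U2OS cells stimulated with forskolin near its EC80 as the cAMP inducer; potency is for inhibition of forskolin-stimulated cAMP signaling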
[13] = target: T5, Neuropeptide Y receptor type 1 (Homo sapiens, UniProt P25929); assay type: functional;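 also: HEK293 cells with a CNG channel challenged with NPY then isoproterenol; potency as antagonist that reverses NPY suppression of cAMP signal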
T5 sequence (P25929 whole entry): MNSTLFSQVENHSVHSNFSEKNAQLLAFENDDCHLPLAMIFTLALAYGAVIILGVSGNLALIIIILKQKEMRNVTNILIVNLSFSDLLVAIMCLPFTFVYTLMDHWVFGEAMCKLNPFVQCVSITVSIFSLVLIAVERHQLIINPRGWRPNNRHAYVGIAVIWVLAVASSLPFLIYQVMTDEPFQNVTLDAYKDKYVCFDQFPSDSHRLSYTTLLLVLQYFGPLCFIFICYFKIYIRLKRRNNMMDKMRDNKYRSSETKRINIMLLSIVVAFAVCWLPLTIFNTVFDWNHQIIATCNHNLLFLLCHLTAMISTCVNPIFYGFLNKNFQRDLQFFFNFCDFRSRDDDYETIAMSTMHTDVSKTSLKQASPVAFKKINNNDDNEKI

[14] = target: T6, Neuropeptide Y receptor type 2 (Homo sapiens, UniProt P49146); assay type: functional, cell-based;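 also: HEK293 cells expressing the receptor and a CNG channel; stimulus was NPY near EC95 followed by isoproterenol to raise cAMP; antagonist potency measured as restoring cAMP signal that NPY suppresses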
T6 sequence (P49146 whole entry): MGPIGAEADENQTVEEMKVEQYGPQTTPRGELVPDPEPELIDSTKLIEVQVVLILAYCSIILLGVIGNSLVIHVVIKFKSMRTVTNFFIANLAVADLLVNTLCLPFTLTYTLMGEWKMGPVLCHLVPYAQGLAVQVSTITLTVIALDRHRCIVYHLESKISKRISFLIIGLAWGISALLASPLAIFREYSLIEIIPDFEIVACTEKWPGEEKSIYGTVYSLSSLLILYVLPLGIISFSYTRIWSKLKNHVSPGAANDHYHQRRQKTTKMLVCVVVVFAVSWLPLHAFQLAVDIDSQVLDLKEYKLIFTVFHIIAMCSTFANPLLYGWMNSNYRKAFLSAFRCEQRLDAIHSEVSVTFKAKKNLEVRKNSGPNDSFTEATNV

[15] = target: Transitional endoplasmic reticulum ATPase (Homo sapiens, UniProt P55072, C522A); experiment: C522A mutant p97 ATPase inhibitors, dose response, counter-screen for p97 inhibitor project, biochemical, luminescence (AID 1544)
Chain of Transitional endoplasmic reticulum ATPase (Homo sapiens, UniProt P55072, C522A) (P55072 2-806 C522A limits assumed): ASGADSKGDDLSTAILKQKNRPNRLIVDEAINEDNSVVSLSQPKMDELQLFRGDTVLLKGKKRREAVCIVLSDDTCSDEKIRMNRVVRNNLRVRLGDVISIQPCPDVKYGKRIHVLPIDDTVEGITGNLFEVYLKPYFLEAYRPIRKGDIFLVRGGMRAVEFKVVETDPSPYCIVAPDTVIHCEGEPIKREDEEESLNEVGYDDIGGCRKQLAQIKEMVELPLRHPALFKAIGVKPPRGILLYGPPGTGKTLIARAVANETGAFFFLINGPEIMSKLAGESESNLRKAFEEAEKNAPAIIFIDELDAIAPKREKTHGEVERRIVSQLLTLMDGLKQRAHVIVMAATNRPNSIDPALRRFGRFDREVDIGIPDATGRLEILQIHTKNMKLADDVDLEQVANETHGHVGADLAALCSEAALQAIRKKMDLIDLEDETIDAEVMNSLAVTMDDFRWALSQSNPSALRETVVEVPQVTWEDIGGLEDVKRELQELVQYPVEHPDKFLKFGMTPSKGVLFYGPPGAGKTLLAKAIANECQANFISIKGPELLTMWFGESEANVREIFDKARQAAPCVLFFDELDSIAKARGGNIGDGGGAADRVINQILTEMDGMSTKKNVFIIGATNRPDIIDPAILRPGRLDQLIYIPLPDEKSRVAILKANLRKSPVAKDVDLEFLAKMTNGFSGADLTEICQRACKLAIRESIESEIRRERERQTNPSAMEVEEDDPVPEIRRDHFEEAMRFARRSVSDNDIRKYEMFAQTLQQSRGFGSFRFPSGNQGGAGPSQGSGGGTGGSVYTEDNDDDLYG

[16] = target: NS3 (Hepatitis C virus, UniProt A3EZJ3); experiment: PubChem AID 2173; design: species or system Hepacivirus hominis
[17] = target: Transitional endoplasmic reticulum ATPase (Homo sapiens, UniProt P55072); experiment: p97 ATPase inhibitors, dose response, biochemical (AID 1534)
Chain of Transitional endoplasmic reticulum ATPase (Homo sapiens, UniProt P55072) (P55072 whole entry): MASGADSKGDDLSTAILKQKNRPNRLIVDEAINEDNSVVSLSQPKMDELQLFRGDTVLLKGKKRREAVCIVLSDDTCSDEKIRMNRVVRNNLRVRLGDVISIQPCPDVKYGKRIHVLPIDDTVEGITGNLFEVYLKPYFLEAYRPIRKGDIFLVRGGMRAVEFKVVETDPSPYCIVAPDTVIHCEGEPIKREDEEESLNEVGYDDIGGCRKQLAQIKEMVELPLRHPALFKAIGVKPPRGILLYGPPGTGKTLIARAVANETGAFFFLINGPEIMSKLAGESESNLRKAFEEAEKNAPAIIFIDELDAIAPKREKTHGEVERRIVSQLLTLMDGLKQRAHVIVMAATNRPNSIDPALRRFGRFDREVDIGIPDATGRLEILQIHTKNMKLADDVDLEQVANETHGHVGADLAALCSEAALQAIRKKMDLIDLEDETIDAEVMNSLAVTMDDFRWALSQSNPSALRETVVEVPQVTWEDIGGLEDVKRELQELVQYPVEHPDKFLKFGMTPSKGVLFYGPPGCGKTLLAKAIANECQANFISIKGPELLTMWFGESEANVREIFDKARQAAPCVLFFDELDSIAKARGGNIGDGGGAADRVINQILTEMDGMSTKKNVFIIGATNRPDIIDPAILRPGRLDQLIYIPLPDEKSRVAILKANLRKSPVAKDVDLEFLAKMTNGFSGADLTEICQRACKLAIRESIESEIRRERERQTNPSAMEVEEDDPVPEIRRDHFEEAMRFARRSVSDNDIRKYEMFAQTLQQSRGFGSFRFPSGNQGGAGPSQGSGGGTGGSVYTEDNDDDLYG

[18] = target: Photoreceptor-specific nuclear receptor (Homo sapiens, UniProt Q9Y5X4); assay type: functional;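 also: potency for compounds that break the NR2E3 corepressor complex and count as activators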
[19] = target: Peroxisome proliferator-activated receptor gamma/Nuclear receptor corepressor 2 (Homo sapiens, UniProt P37231+Q9Y618); assay type: functional
Chain of Peroxisome proliferator-activated receptor gamma/Nuclear receptor corepressor 2 (P37231 whole entry): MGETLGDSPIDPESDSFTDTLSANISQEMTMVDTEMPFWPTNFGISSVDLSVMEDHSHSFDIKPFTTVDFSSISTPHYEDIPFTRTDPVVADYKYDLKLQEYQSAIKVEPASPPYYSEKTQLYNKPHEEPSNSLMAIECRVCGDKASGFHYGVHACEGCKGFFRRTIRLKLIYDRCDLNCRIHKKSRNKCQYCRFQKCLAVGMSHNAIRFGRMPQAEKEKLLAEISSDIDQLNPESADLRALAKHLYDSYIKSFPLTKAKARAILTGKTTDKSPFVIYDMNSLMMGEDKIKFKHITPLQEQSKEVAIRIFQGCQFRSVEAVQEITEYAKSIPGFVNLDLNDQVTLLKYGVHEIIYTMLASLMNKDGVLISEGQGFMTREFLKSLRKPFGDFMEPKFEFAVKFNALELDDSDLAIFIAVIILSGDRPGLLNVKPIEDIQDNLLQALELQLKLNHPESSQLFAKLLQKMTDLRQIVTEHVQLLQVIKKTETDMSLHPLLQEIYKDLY
Chain of Peroxisome proliferator-activated receptor gamma/Nuclear receptor corepressor 2 (Q9Y618 whole entry): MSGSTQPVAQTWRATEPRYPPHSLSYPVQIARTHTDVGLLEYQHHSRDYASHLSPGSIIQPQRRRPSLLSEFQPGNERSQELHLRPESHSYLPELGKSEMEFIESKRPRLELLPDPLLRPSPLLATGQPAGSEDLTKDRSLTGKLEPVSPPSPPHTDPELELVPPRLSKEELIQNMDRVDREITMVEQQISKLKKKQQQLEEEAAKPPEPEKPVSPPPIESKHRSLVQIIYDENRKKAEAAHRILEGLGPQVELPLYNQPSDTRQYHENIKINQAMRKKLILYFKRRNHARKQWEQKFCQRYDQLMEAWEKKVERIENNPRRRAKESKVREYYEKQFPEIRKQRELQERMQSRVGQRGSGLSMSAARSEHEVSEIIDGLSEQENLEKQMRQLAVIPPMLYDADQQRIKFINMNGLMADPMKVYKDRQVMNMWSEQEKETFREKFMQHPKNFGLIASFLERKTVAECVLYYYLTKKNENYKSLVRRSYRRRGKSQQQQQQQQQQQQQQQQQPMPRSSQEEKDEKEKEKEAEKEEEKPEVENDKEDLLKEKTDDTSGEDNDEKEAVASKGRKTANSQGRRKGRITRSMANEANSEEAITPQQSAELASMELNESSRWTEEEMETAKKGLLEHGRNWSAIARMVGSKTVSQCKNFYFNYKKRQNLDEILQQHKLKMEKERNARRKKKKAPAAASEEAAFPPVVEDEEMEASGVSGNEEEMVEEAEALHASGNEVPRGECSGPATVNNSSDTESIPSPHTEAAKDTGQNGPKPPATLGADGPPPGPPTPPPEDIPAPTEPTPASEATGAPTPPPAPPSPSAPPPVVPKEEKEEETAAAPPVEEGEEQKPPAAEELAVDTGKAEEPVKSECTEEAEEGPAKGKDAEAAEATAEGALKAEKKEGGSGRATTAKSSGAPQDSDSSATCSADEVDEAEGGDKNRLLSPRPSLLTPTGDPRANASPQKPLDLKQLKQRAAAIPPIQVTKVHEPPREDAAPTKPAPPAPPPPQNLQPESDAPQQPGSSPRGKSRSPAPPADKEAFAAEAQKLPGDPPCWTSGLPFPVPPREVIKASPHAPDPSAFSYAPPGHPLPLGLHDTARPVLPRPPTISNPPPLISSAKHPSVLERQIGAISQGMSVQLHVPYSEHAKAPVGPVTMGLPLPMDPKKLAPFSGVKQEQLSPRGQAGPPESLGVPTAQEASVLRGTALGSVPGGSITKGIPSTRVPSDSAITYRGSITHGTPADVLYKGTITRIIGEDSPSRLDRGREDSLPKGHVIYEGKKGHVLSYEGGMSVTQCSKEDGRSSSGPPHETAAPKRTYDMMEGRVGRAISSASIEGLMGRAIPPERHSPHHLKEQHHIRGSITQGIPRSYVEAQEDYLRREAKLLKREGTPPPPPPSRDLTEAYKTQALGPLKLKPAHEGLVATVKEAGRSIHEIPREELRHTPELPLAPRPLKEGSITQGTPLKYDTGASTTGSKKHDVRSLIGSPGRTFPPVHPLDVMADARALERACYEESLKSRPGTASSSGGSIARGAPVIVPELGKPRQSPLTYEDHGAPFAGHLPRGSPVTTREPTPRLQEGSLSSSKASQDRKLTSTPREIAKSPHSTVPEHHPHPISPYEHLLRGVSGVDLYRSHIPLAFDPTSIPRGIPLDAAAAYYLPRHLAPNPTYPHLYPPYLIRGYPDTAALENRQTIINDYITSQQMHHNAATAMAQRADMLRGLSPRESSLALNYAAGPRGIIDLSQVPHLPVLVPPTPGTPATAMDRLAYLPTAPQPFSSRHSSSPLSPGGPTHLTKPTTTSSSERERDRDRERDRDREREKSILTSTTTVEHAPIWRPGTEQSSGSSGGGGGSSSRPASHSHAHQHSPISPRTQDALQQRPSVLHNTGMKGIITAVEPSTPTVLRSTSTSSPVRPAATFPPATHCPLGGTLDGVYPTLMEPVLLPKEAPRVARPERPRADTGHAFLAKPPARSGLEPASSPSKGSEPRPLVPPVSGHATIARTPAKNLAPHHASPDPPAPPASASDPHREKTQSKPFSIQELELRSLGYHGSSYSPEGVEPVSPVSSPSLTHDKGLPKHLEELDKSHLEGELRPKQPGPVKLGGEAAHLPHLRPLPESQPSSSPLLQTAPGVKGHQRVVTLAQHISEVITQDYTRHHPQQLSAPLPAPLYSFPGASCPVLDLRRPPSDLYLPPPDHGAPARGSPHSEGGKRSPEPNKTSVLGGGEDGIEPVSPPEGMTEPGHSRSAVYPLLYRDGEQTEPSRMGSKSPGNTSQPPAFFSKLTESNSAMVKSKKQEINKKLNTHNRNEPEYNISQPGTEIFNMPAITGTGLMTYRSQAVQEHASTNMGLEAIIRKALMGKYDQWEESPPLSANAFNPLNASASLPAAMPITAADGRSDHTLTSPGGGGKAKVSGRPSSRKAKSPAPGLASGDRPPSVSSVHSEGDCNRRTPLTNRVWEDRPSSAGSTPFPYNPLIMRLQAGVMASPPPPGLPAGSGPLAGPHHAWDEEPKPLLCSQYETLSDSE

SMILES: CC(C)CN=C(S)NNC(=O)c1ccco1
- EC50 [1]: 73.9 µM (not active)

SMILES: CC(=O)n1cc(N(C(=O)CCl)c2ccc(Cl)cc2)c2ccccc21
- EC50 [2]: 0.198 µM (active)
- EC50 [3]: 2.5 µM (inconclusive)
- CC50 [4]: 1.08 µM (active)
- IC50 [5]: 0.682 µM (active)
- EC50 [6]: 2.67 µM (active)
- EC50 [7]: 1.37 µM (inconclusive)
- IC50 [8]: 7.32 µM (active)
- AC50 [9]: 1.27 µM (active)
- EC50 [10]: 0.346 µM (active)
- IC50 [11]: > 64.5 µM (inactive)
- IC50 [12]: > 64.5 µM (inactive)

SMILES: Cc1ccc(C)c(NS(=O)(=O)c2cc(C(=O)Nc3ccccc3-c3ccccc3)ccc2Cl)c1
- IC50 [13]: > 35 µM (not active)
- IC50 [14]: 0.428 µM (active)

SMILES: O=C(CCl)Nc1nc(-c2ccco2)c(-c2ccco2)s1
- IC50 [15]: > 50 µM (not active)
- IC50 [16]: 47.8 µM (not active)
- IC50 [17]: > 50 µM (not active)

SMILES: Cc1cccc(NC(=O)CSc2ncnc3c2oc2ccccc23)c1
- IC50 [18]: > 39.8 µM (not active)
- IC50 [19]: 3.35 µM (active)
